Activity calls are given as the source filed them. Bounds are passed on as bounds.

Assay [1] deals with 72 kDa type IV collagenase (Homo sapiens, UniProt P08253). The experiment in a line: Dose Response validation of uHTS RPN11 inhibitor hits using a MMP-2 Fluorescence assay. It counts as functional.
A further assay concerns the target T1, Cysteine protease ATG4B (Homo sapiens, UniProt Q9Y4P1).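 Note: Fluorescence-based dose-response confirmation assay measuring inhibition of ATG4B activity.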
T1 sequence (Q9Y4P1 whole entry): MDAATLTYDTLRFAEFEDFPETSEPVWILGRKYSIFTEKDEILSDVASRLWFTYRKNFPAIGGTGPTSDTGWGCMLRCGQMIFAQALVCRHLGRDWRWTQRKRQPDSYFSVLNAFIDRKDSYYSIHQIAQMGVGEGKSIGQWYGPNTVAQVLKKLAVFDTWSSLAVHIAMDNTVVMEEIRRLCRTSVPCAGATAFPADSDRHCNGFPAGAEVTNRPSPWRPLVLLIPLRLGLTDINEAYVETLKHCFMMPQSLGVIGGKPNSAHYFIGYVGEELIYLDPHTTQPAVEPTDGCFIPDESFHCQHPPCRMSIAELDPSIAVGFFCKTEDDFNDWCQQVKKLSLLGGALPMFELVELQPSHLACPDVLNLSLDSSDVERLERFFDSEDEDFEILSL
It counts as functional.

Another assay addresses Prothrombin (Bos taurus, UniProt P00735). The experiment in a line: thrombin inhibition, dose response, biochemical, fluorescence polarization, uHTS hits (AID 602369). It counts as functional.
A further assay has as its target Phospholipase A2 (Homo sapiens, UniProt P04054). It counts as functional.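 Note: confirmatory dose-response counterscreen on phospholipase A2, testing hits that came from an ultra-high-throughput screen for ATG4B inhibitors.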
In assay [2] the target is T2, Voltage-gated N-type calcium channel alpha-1B subunit/Amyloid beta A4 precursor protein-binding family A member 1 (Homo sapiens, UniProt Q00975+Q02410). It counts as protein assay.
Assay [3] has as its target T3, Histone-lysine N-methyltransferase NSD2 (Homo sapiens, UniProt O96028).
T3 sequence (O96028 whole entry): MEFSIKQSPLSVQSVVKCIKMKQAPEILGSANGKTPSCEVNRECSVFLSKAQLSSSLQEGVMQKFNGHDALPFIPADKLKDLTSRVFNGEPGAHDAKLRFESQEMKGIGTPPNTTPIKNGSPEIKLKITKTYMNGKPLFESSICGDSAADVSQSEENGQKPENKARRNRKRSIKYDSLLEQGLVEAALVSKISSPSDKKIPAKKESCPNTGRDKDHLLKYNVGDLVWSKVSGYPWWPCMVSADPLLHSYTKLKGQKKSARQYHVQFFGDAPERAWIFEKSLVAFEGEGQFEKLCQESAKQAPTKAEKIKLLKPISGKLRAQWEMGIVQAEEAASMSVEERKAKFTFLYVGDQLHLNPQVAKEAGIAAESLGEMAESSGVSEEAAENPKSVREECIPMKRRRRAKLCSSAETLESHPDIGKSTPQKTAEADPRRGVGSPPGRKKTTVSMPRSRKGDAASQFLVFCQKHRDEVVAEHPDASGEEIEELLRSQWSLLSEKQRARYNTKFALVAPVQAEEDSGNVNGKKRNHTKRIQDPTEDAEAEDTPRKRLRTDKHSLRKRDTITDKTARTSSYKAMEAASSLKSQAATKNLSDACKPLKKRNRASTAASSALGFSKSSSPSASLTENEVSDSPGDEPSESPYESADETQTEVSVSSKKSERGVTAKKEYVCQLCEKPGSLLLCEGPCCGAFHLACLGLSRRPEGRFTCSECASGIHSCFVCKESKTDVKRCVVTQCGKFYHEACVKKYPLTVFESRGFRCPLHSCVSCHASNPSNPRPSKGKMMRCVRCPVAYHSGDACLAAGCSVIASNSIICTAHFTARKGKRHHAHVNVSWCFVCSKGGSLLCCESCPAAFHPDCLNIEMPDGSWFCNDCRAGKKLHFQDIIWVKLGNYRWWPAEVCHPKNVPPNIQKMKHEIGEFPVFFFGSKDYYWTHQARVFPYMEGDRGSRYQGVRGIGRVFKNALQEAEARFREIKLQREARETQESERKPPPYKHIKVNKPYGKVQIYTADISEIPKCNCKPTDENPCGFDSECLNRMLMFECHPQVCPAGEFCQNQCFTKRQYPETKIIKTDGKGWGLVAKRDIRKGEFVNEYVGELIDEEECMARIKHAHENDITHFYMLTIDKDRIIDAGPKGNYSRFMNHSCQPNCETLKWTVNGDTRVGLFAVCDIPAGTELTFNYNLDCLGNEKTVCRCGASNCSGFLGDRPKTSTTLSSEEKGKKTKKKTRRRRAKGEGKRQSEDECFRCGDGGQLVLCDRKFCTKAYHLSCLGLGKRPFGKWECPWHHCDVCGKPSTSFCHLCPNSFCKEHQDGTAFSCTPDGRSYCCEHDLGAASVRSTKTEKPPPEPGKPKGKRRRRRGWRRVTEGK
It counts as biochemical.

The target in assay [4] is T2, Voltage-gated N-type calcium channel alpha-1B subunit/Amyloid beta A4 precursor protein-binding family A member 1. It counts as protein assay. The source holds these as a separate data set.
The target in the next assay is T4, Aminopeptidase N (Plasmodium falciparum FcB1/Columbia, UniProt O96935).
T4 sequence (O96935 whole entry): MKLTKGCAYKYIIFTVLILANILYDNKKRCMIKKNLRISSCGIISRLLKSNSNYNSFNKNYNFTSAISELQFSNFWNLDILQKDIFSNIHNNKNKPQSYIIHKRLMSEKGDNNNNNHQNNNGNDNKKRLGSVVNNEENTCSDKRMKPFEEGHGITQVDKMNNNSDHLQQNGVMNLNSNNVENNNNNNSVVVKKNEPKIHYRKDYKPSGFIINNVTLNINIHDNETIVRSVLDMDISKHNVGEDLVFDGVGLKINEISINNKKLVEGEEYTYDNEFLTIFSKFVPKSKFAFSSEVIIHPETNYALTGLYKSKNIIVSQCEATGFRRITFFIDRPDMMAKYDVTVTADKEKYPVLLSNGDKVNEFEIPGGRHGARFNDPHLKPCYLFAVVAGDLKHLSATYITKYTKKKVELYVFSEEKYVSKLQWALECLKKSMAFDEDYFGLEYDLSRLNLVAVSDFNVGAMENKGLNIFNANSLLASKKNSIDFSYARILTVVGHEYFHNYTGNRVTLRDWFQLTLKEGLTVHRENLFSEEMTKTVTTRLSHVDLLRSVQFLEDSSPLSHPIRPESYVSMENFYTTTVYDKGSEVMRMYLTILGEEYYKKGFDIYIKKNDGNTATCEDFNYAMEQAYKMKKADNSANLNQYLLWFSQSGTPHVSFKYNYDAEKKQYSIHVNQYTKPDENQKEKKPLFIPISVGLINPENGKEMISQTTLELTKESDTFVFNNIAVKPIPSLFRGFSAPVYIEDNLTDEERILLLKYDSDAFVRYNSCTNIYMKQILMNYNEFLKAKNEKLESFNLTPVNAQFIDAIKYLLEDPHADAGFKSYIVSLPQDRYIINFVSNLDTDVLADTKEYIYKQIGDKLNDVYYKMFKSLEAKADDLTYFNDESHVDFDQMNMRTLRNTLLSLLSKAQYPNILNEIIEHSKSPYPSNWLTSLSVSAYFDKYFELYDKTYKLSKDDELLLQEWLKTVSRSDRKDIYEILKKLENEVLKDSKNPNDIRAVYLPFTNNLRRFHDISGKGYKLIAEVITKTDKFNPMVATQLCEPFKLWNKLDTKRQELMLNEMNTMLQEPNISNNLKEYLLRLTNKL
The experiment in a line: P. falciparum M1AAP inhibitors, biochemical, fluorogenic H-Leu-NHMec substrate, 1536-well (AID 1445). On the set-up: species or system Plasmodium falciparum 3D7, 3D7.

Assay [5] concerns the target 26S proteasome non-ATPase regulatory subunit 14 (Homo sapiens, UniProt O00487). The experiment in a line: inhibition of proteasome subunit RPN11 – biochemical, fluorescence polarization, uHTS hits, confirmation (AID 602368). It counts as functional.
For assay [6], the target named is T5, Apoptotic protease-activating factor 1 (Homo sapiens, UniProt O14727).
T5 sequence (O14727 whole entry): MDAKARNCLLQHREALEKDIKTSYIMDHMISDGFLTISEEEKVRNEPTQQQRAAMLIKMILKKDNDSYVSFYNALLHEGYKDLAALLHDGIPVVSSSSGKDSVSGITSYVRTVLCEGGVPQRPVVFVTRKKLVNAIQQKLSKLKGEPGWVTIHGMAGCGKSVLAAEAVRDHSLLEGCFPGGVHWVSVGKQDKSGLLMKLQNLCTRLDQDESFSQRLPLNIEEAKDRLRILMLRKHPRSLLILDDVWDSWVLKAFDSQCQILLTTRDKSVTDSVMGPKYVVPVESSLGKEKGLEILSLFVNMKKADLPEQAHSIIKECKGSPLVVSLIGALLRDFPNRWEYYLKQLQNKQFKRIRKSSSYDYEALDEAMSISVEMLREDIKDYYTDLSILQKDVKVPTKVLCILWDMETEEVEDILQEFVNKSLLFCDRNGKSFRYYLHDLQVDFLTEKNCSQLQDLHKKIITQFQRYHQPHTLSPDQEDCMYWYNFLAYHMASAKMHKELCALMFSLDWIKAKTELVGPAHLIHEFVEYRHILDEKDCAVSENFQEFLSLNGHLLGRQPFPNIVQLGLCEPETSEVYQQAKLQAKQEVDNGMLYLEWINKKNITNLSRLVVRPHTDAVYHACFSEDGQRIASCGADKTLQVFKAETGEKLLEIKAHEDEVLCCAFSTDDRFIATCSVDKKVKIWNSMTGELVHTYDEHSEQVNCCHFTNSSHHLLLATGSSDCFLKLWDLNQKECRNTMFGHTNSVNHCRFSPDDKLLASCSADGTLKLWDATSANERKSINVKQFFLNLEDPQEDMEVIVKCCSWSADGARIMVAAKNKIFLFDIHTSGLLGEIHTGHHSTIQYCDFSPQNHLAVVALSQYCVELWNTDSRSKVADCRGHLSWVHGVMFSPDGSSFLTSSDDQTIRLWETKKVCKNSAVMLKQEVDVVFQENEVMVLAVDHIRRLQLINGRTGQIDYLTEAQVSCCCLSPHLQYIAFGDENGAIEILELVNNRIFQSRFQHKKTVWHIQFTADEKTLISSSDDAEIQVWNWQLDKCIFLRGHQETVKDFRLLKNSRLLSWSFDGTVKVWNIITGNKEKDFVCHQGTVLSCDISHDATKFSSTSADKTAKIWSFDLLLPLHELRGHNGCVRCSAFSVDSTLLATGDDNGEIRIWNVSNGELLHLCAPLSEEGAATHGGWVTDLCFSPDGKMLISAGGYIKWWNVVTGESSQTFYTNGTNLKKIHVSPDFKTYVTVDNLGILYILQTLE
It counts as functional.

Assay [7] can be described thus: inhibitors of SNCA 5'UTR-driven reporter translation, confirmation, H4 neuroglioma cells, luminescence (AID 1988). It counts as functional, cell-based.
The nature of assay [8]: Luminescence Cell-Based Dose Response HTS to Identify Inhibitors of 5'UTR Stem-Loop Driven Prion Protein mRNA Translation in H4 Neuroglioblastoma Cells. [Related pubchem assays: 1827 (Project Summary), 1813 (Primary HTS)]. It counts as functional.
In assay [9] the target is T6, Ubiquitin-conjugating enzyme E2 N (Homo sapiens, UniProt P61088).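 Note: Dose-response confirmation in a TR-FRET assay detecting UBC13-driven polyubiquitin chain formation, inhibition measured.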
T6 sequence (P61088 whole entry): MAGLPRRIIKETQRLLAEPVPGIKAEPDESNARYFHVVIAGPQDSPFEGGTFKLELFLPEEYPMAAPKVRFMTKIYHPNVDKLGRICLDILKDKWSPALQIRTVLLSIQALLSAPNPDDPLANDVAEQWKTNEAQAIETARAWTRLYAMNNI
It counts as functional.

The nature of assay [10]: inhibitors of firefly luciferase expression or activity, dose response, H4 neuroglioma cells, luminescence (AID 1990). It counts as functional, cell-based.
Assay [11] concerns the target G-protein coupled receptor 55 (Homo sapiens, UniProt Q9Y2T6). The experiment in a line: GPR55 antagonists blocking LPI-driven arrestin recruitment, primary screen, imaging, U2OS, beta-arrestin-GFP, LPI agonist (AID 2013).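 Note: antagonist potency measured as reduced agonist-driven arrestin aggregation.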 It counts as functional.
For a further assay, the system named is HT-1080. Put plainly: cytotoxicity in HT1080 fibrosarcoma cells, cell-based, fluorescence readout (AID 620). It counts as functional. The following applies: Homo sapiens.
Assay [12] concerns the target Aryl hydrocarbon receptor (Homo sapiens, UniProt P35869). Put plainly: Luminescence-based cell-based high throughput dose response assay for activators of the Aryl Hydrocarbon Receptor (AHR). [Related pubchem assays: 2796 (Primary screen (AHR activators in singlicate)), 2845 (Confirmation screen (AHR activators in triplicate)), 434939 (Counterscreen (PXR activators in triplicate)), 2804 (Summary (AHR activators))]. It counts as ADME.

For assay [13], the target named is E3 ubiquitin-protein ligase Mdm2/Protein Mdm4 (Homo sapiens, UniProt O15151+Q00987). The experiment in a line: Mdm2-MdmX interaction inhibitors, dose response, luminescence detection (AID 504593). It counts as functional.
The target of assay [14] is Luciferin 4-monooxygenase (Photinus pyralis, UniProt P08659). Put plainly: Counter Screen for Luciferase-based Assay Positives. [Related pubchem assays: 620, 618, 411 ].

T2 sequence (Q00975 whole entry): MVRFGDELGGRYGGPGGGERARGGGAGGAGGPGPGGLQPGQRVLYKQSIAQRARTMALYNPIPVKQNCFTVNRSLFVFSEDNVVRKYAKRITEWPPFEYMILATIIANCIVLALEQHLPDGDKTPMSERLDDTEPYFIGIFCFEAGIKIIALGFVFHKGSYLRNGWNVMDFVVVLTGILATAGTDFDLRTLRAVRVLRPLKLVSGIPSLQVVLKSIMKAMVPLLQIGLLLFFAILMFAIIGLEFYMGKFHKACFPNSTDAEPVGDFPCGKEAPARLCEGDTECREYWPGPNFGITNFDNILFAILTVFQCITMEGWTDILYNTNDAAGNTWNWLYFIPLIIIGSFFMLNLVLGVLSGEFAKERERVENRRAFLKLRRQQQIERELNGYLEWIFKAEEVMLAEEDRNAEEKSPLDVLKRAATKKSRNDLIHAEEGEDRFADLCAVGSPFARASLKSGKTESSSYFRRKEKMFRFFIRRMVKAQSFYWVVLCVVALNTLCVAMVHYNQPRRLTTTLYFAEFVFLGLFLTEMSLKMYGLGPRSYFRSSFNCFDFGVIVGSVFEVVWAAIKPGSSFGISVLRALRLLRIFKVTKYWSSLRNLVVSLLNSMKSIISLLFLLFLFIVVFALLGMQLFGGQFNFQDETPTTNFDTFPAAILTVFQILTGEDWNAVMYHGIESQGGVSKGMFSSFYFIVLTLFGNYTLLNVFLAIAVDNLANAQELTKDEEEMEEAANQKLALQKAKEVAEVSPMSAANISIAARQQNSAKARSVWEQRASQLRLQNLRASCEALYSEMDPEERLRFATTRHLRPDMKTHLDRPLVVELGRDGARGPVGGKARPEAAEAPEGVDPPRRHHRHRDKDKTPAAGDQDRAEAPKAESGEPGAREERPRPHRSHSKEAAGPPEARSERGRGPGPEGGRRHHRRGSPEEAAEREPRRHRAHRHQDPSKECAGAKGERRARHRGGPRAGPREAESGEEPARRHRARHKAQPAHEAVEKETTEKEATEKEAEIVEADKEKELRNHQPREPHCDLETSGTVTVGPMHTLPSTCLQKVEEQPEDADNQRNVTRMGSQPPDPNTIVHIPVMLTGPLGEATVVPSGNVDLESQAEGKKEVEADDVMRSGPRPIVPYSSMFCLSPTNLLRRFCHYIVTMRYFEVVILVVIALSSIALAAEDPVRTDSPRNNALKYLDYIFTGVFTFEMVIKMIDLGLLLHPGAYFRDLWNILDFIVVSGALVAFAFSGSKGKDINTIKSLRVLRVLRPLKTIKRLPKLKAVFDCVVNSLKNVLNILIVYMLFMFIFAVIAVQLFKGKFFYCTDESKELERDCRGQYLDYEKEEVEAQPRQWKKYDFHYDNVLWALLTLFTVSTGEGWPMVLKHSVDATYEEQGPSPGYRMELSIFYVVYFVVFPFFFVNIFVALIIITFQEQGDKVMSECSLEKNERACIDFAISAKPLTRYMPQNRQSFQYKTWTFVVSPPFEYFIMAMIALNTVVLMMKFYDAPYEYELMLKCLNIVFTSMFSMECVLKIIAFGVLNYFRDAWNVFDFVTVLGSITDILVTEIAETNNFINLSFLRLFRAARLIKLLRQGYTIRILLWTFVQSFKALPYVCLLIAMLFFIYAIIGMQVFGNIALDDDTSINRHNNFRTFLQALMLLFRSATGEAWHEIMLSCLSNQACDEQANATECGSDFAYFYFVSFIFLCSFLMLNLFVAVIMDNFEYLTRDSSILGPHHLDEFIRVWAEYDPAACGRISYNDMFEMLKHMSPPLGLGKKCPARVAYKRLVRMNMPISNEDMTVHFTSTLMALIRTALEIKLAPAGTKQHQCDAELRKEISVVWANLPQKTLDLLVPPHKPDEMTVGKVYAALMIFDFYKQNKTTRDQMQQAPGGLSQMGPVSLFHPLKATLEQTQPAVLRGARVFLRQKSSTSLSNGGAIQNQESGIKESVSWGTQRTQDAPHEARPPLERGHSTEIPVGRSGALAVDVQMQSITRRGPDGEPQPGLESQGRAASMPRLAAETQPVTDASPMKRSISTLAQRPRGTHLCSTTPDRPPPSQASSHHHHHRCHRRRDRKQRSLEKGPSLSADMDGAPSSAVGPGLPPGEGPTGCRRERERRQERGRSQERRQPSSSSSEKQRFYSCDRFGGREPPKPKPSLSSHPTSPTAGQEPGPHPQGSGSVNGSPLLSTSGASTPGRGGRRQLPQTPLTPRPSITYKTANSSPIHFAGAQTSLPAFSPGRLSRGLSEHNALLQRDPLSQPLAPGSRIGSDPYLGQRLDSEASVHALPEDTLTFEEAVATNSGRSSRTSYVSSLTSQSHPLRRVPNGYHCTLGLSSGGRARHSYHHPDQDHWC
T2 sequence (Q02410 whole entry): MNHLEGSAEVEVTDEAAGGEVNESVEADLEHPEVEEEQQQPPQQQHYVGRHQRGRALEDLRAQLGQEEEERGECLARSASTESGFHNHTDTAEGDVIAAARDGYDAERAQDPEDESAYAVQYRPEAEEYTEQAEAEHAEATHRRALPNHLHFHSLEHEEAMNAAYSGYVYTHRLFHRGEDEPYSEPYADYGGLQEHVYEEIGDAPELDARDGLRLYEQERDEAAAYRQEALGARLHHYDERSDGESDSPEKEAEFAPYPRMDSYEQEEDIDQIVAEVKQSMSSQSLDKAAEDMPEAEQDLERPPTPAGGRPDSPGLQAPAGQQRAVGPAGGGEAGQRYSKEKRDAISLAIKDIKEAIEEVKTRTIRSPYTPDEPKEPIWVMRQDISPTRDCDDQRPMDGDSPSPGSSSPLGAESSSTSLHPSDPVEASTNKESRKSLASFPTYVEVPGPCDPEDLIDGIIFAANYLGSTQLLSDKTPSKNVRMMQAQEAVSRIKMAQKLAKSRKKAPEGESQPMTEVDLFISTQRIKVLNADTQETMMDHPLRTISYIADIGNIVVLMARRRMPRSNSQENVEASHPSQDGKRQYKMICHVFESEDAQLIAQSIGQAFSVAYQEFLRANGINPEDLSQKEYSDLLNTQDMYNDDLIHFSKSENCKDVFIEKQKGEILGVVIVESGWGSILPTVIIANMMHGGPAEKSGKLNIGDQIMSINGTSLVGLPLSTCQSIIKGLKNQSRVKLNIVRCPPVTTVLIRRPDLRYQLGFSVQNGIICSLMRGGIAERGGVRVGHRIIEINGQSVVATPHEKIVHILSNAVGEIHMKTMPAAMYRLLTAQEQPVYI
Sequence of Aryl hydrocarbon receptor (P35869 whole entry): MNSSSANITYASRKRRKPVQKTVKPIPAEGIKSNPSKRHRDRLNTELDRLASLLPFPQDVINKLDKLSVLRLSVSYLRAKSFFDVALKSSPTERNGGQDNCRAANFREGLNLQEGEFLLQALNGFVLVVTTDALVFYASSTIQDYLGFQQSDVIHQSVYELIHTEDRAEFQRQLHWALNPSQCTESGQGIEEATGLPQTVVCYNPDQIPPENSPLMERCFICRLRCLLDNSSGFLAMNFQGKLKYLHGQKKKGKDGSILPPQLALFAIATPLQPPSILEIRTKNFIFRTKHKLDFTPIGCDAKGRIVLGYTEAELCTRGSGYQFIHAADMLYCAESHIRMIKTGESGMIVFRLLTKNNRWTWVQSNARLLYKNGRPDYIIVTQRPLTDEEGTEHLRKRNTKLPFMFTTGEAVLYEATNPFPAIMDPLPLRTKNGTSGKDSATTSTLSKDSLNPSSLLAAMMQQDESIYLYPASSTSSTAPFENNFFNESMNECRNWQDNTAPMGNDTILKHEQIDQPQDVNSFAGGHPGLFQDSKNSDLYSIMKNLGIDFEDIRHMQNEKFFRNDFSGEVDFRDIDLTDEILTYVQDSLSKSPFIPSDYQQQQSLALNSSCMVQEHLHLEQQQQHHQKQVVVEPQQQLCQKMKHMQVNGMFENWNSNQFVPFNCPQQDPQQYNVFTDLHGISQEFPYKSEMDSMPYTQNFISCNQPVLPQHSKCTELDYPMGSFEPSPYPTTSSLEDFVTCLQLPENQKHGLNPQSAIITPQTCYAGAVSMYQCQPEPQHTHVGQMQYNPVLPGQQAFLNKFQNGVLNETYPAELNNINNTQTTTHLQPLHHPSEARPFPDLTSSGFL
Sequence of G-protein coupled receptor 55 (Q9Y2T6 whole entry): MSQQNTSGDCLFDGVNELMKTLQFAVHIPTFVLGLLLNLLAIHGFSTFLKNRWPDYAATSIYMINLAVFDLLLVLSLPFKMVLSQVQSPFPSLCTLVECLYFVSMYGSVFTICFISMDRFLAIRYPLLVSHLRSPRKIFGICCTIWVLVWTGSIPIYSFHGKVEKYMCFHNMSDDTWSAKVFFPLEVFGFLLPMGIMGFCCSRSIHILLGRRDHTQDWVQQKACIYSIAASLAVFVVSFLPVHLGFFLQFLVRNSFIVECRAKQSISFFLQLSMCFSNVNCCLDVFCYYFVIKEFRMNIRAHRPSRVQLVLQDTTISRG
Sequence of 72 kDa type IV collagenase (P08253 whole entry): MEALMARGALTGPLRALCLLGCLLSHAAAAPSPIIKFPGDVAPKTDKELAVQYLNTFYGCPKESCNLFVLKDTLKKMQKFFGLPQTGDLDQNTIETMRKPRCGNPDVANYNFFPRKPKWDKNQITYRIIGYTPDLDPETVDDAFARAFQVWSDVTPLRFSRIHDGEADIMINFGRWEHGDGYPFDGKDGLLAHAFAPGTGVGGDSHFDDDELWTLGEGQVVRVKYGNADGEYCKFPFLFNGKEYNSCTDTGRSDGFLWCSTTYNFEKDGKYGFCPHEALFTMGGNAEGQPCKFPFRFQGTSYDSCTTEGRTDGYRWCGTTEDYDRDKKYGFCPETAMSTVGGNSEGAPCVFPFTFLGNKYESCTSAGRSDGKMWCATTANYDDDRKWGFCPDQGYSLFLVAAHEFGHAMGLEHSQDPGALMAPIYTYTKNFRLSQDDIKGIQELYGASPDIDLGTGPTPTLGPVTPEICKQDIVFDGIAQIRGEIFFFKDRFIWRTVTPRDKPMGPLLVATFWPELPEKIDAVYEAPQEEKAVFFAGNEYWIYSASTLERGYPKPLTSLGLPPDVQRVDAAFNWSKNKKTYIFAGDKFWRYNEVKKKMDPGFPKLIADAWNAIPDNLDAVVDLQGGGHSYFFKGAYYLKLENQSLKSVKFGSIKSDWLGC

Take `CCc1ccc(-n2cccc2/C=C2/C(=N)N3C(=NC2=O)SN=C3S(C)(=O)=O)cc1`: the IC50 is 30.9 µM (active) in [1]; 11.2 µM (active) at Cysteine protease ATG4B; 45.8 µM (active) on Prothrombin; 12 µM (active) on Phospholipase A2; 7.3 µM (active) in assay [2]; > 50 µM (inactive) in assay [4]. Further, the IC50 at Aminopeptidase N was 34.4 µM (active); in assay [5] it was 21.8 µM (active). For the same molecule, the AC50 in assay [3] was 11.5 µM (active).
For the molecule `CN1Cc2c(N3CCOCC3)nc3sc(C(=O)c4ccc(Br)cc4)c(N)c3c2CC1(C)C`, the IC50 was 15.8 µM (active) in assay [6], > 20 µM (inactive) in assay [9] and 3.9 µM (active) in assay [11]. Further, the EC50 in assay [7] was 8.58 µM (active); in assay [8], 11.6 µM (active); in [10], 10.4 µM (active).
Take `Cc1nc(NC2=NCN(CCCN3CCOCC3)CN2)nc2c(C)cccc12`: the figures for the EC50 (with HT-1080; in assay [12]; in assay [14]) were 51.5 µM (not active), 12.1 µM (not active) and 3.36 µM (active), respectively. Moreover, the IC50 in assay [13] is 3.92 µM (active).

The values above are taken from ChEMBL document CHEMBL1201862, “PubChem BioAssay data set” (2004).
